Series [1] relates to dopaminergic neurons (TH+) of rat embryo ventral midbrain culture. The series is described as follows: dopaminergic neuron spontaneous degeneration model in culture, TH+ neuron count after 8 days (Schmidt et al. protocol). The format is cell-based. As to the method:
(§1) Quinoxaline derivatives were tested on a dopaminergic neuron spontaneous degeneration model in culture according to the protocol described in the article by F. Schmidt et al. […] This model consists of culturing rat embryo ventral midbrain. This part of the brain in culture contains a proportion of dopaminergic neurons of 5% of the total neurons; the other neurons are mainly GABAergic. These cultures are also composed of glial cells, i.e., astrocytes, oligodendrocytes and microglia. These cultures are characterized by progressive neuron death.

The test system is the same in series [2]. The series can be described thus: neuritogenic activity: neurite outgrowth per cell / differentiation of TH+ neurons. The format is cell-based. As to the method:
as §1, with “death. […] To assess the neuritogenic activity of compounds according to the invention, neurite outgrowth per cell was quantified using the Neurite Outgrowth software developed by Xplora Nova. At least 60 neurons per condition were photographed and studied.” for “death.”

Series [3] is described as follows: passage of the blood-brain barrier, IP study: brain extract concentration by HPLC-MS/MS. The format is in vivo, Rj Orl: SWISS mice. Conditions: for concentration at 2 h: male, Rj Orl: SWISS, mouse, brain extract, ip, 70 mg/kg, IP 70 mg/kg, ± SEM. As to the method: Male Rj Orl: SWISS, mice, approximately 5 weeks old and weighing between 20 and 24 g at arrival (R Janvier Breeding Center, France) were kept in the animal room at constant temperature (22±1° C.) and controlled humidity (55±20%), with a 12-hour light/dark cycle (8:00 a.m.-8:00 p.m.). During the acclimation and study period, the mice had free access to food and water. All the experiments were conducted in compliance with the conditions of decree 2001-464 of May 29, 2001 relative to animal experimentation.
Two treatment modes were used: intraperitoneal (IP) administration for 1 or 2 days or oral or per os administration for 5 days.
The solution of compound 4bc to be injected at a concentration of 7.0 g/L was prepared in a carrier containing 10% Tween 20+20% DMSO+70% 0.9% NaCl in water.
Three animal groups were created: • mice who received the carrier by IP at 10 mL/kg (Group V, n=2), • mice treated with compound 4bc by IP at 70 mg/kg and at 10 mL/kg (Group T, n=6), • one untreated mouse that was used as a […] control during analysis.
Treated mice T2 and T3 received treatments as follows:
Treated mice T1, T4, T5 and T6 as well as the mice receiving the carrier V1 and V2 received the treatments/carriers as follows:
The mice were anesthetized by an injection of 0.1 mL of a 6% sodium pentobarbital solution and then the mice were infused to eliminate the compound present in the plasma with a 0.9% NaCl solution containing heparin (200 μL of heparin choay to 5000 IU/mL in one liter of 0.9% NaCl). Each animal was infused with a minimum of 50 mL of this solution. The mouse was then decerebrated and the cerebellum, brainstem and olfactory bulbs were removed by dissection.
For the IP study, the brain was dissected into two parts (right and left hemisphere).
Each mouse brain sample treated with compound 4bc was weighed, placed in MeOH (100 μl MeOH per 10 mg of brain tissue) and then mixed by sonication. The suspensions thus obtained were centrifuged at 14,000 g for 7 minutes at 4° C. for IP or at 27,000 g for 10 minutes, at 4° C. for oral administration. The supernatants, diluted by half in MeOH, were transferred into HPLC vials for analysis of the presence of compound 4bc by HPLC-MS/MS.
Detection and quantification, based on peak area, were done by HPLC-MS/MS in MRM mode.
The HPLC system was composed of a Dionex Ultimate 3000 pump equipped with a Dionex WPS-3000PL automatic sample injector. The mass spectrometer used is a Water-Micromass Quattro Ultima equipped with an electrospray ionization source and a triple quadrupole analyzer. Data was acquired and analyzed by Masslynx 3.5.
Liquid chromatography was performed in isocratic mode with a Nucleodur™ (Macherey-Nagel) C18, 125×2.1 mm column with a particle size of 5.0 μm. The mobile phase was composed of a mixture of two phases A and B, in a proportion of 30/70. Phase A was composed of 1% acetic acid in water (v/v). Phase B was composed of 1% acetic acid in MeOH (v/v). The flow rate was set at 0.2 mL/min; the injection volume was 5 μl.
The mass spectrometer was connected to the HPLC system by using an electrospray ionization source. A switching valve was programmed before injection of the sample for rinsing and equilibration of the capillary, so as to prevent any accumulation of salt in the source capillary. The capillary voltage was set at 4000 V and the cone voltage at 80 V; the source temperature was set at 120° C.; the desolvation gas (N2) was set at a flow rate of 529 and the temperature at 350° C. The mass spectra were obtained in positive mode. The parameters were optimized to obtain the maximum molecular ion ([M+H]^+) at m/z 236.41, corresponding to compound 4bc. Collision was done by argon and the energy was set at 30 eV in MS/MS mode for detecting mass transitions: m/z 236.41→117.08; 236.41→131.10 and 236.41→158.27.

Series [4] is described as follows: IP study in rats: brain extract and plasma concentration. The format is in vivo. As to the method: The kinetics in mouse brain and plasma of compound 4bc after IP administration are also shown in FIG. 8. • Another study was done in rats treated by IP. These rats received a treatment of 20 or 45 mg/kg at 10 mL/kg of a solution of compound 4bc over 2 days comprising 2 IP injections the first day and 1 IP injection the second day.

Series [5] in a line: toxicity: animal weight monitoring during per os treatment. The format is in vivo. The protocol:
Three groups were created: • mice who received the carrier orally at 10 mL/kg (Group V, n=4), • mice treated with compound 4bc orally at 150 mg/kg and at 10 mL/kg (Group T, n=6), • control mice who received no treatment (n=2). All the mice were treated or received the carrier twice daily for 4 days. On the 5th day, a last treatment was administered and the animals were euthanized between […]. after this last treatment according to the following plan:
The animals were weighed every day throughout the sub-chronic study in order to monitor their general condition. Animal weights were considered a good indicator of general health since a compound's toxicity is known to be characterized by loss of bodyweight over time.

[6] abbreviates: IP 20 mg/kg at 10 mL/kg, approximately 3 h.

Molecules are shown by their SMILES. Entries after “also recorded” stand apart in the source; their conditions may differ. Like-named read-outs stand apart in the source and are kept apart here.

In the case of `Cc1nc2ccc(N)cc2nc1-c1ccccc1` [Compound 4bc], the “activity on survival of dopaminergic neurons (in words)” value in series [1] (100 nM, compared with dbcAMP) is reported as “nearly equal to the one induced by dbcAMP”. Moreover, the activity at 0.1 µM was found to be 140% in series [1] (Rattus norvegicus, Neuron, 192 h, compound at 100 nM, 8 days of culture, read-out: TH+ neurons in % of control ± SEM) and 142% in series [2] (Rattus norvegicus, Neuron, compound at 100 nM, read-out: Diff in % of control ± SEM). The “TH+ neuron differentiation / neuritogenic effect (in words, FIG. 1)” value in series [2] (100 nM, versus negative control) was “significant increase; also recorded: longer and more numerous neurite extensions”. Besides, in series [3] (IP), the “brain extracts at 4-6 h less concentrated than at 2 h post-treatment” value was 2000 times. Further, the “elimination from the brain over time” value in series [3] (IP) is on record as “eliminated quickly from the brain”. The “mean value of extracts analyzed later lower than previously calculated (ratio of the means)” value in series [3] (IP, 2 h brain extracts, stored at 4° C.) is reported as “approximately 6 times”. Moreover, the “detection in old brain extracts” value in series [3] (IP, euthanized between 4 and 6 h after the last treatment, extracts stored 40 days at 4° C., n=8) is “detectable”. In addition, the “crossing of the blood brain barrier in vivo” value in series [3] (intraperitoneal administration) is recorded as “able to cross the blood brain barrier”. Also, the concentration at 2 h in series [3] (euthanized 2 h after last treatment, extracts stored 40 days at 4° C., n=4, read-out: mean concentration in old brain extracts) was 1390 ng/mL; in series [3] (euthanized 2 h after the last treatment, n=3, read-out: mean concentration in brain extract) it was 8830 ng/mL. Further, the Brain extract concentration turned out to be 0.1 µg/mL in series [4] (setting [6]) and 5.1 µg/mL in series [4] (IP 45 mg/kg at 10 mL/kg, approximately 1 h). Also, the Plasma concentration in series [4] (setting [6]) stood at 0.4 µg/mL. For the same molecule, in series [5] (oral, 300 mg/kg/day over a 5-day treatment), the adverse reactions entry is given as “without adverse reactions”. Further, in series [5] (per os, 300 mg/kg/day, 5 days), the “toxicity from animal weight gain” value is listed as “absence of significant toxicity”.

These data come from patent US9434701B2, “Aminoquinoxaline derivatives for treatment of neurodegenerative diseases” (CENTRE NATIONAL DE LA RECHERCHE SCIENTIFIQUE (CNRS), priority 2011, dated 2016).
